Laboratory results taken from patent US7745450B2, “Pyrazolo[4,3-d]pyrimidines, processes for their preparation and methods for therapy” (Institute of Experimental Botany, priority 2002, dated 2010).

Tests used:
MMK1 protein kinase = MMK1 protein kinase (Vicia faba, UniProt A0AAV1B7B8); assay: MMK1 protein kinase activity; format: biochemical
Description: Protein extraction and purification of pant CDK by binding to p13^suc1-beads or immunopurification with an antibody specific to the cdc2a-MS protein was carried out as described previously (Bögre et al. 1997, Plant Physiol. 113, 1997, 841-852). The MMK1 protein kinase was purified with a specific antibody from Vicia faba extracts as described by Bögre et al. 1997a, Plant Cell 9, 75-83). Protein kinase activity was measures as described above in Example 20. The quantification of radioactivity incorporated into histone H1 or myelin basic protein was undertaken using phosphoimager (FIG. 2).

[1] = system: CEM (human lymphoblastoid leukemia); assay: In vitro cytotoxic activity, Calcein AM; format: cell-based; details: Homo sapiens, 72 h, three days
Description: We have been using the following cell lines: HELA (human cervical carcinoma), MCF7 (human breast adenocarcinoma), NIH 3T3 (mouse fibroblasts), HOS (human osteogenic sarcoma), HL 60 (human promyelocytic leukemia), G 361 (human malignant melanoma), K562 (human erythroleukemia), CEM (human lymphoblastoid leukemia). Tested drugs were added to the cell cultures in six different concentration and kept at 37° C. and 5% CO2 for three days. All cell lines were grown in DMEM medium (Gibco BRL) supplemented with 10% (v/v) fetal bovine serum and L-glutamine and maintained at 37° C. in a humidified atmosphere with 5% CO2. 10^4 cells were seeded into each well of 96 well plate, allowed to stabilize for at least 2 h and then tested compounds were added at various concentrations ranging from 200 to 0.2 μM in triplicates. Three days after drug addition Calcein AM solution (Molecular Probes) was added and let to enter the cells for 1 hour. Fluorescence of viable cells was quantified employing Fluoroskan Ascent (Microsystems).

B16 = assay: In vitro cytotoxic activity, Calcein AM; format: cell-based; details: Mus musculus, B16, 72 h, three days

MMK1 protein kinase, sequence (A0AAV1B7B8 1-394): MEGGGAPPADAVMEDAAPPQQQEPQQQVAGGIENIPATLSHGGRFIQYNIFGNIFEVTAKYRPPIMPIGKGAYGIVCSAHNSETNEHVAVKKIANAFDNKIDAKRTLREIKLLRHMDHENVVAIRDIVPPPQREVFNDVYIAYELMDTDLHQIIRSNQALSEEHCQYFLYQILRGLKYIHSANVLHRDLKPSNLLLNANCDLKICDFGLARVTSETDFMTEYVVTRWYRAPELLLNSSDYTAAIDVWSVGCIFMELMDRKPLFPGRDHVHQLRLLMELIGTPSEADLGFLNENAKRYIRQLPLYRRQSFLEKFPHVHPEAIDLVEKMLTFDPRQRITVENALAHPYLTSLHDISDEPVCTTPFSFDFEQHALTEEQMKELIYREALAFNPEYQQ

SMILES | IC50 (MMK1 protein kinase) [µM] | GI50 [1] [µM] | GI50 (B16) [µM]
CC(C)c1n[nH]c2c(NCc3ccc(Cl)c(N)c3N)nc(N[C@@H](CO)C(C)C)nc12 | 0.04 | 8.2 | 12.4
Cc1n[nH]c2c(Nc3ccc(N)c(Cl)c3)nc(NCCO)nc12 | 0.25 | 16.2 | 17.5
CC(C)c1n[nH]c2c(NCc3ccc(O)c(O)c3)nc(N[C@@H](CO)C(C)C)nc12 | 0.31 | 4.2 | 5.8
Cc1n[nH]c2c(Nc3ccc(Cl)c(C(=O)O)c3)nc(NCCO)nc12 | 0.3 | 6.5 | 7.2
CC[C@H](CO)Nc1nc(Nc2cc(N)cc(Cl)c2)c2[nH]nc(C(C)C)c2n1 | 0.02 | 9.4 | 16.5
Cc1n[nH]c2c(NCc3ccc(Cl)c(N)c3)nc(NCCO)nc12 | 1.8 | 12.4 | 13.5
CC[C@H](CO)Nc1nc(NCc2cc(O)c(Cl)cc2O)c2[nH]nc(C(C)C)c2n1 | 0.015 | 2.5 | 4.8
COc1ccc(CNc2nc(NCCO)nc3c(C)n[nH]c23)c(O)c1O | 0.29 | 3.5 | 4.2
Cc1n[nH]c2c(Nc3cc(N)cc(Cl)c3)nc(NCCO)nc12 | 0.3 | 13.4 | 14.5
Cc1n[nH]c2c(Nc3ccc(Br)cc3)nc(NCCO)nc12 | 0.15 | 8.5 | 8.6
CC[C@H](CO)Nc1nc(NCc2cccc(C)c2O)c2[nH]nc(C(C)C)c2n1 | 0.014 | 1.9 | 2.1
CC[C@H](CO)Nc1nc(NCc2cccc(Cl)c2O)c2[nH]nc(C(C)C)c2n1 | 0.012 | 1.2 | 2.4
CC[C@H](CO)Nc1nc(NCc2c(N)cccc2Cl)c2[nH]nc(C(C)C)c2n1 | 0.0035 | 4.6 | 8.3
CC[C@H](CO)Nc1nc(NCc2ccc(Cl)c(O)c2O)c2[nH]nc(C(C)C)c2n1 | 0.011 | 3.1 | 5.6
CC[C@H](CO)Nc1nc(NCc2ccc(Cl)c(N)c2N)c2[nH]nc(C(C)C)c2n1 | 0.4 | 4.6 | 9.9
Cc1n[nH]c2c(NCc3c(N)cccc3Cl)nc(NCCO)nc12 | 0.86 | 5.8 | 7.2
CC[C@H](CO)Nc1nc(NCc2cccc(C(C)=O)c2)c2[nH]nc(C(C)C)c2n1 | 0.04 | 11.5 | 19.1
CC(=O)Oc1ccccc1CNc1nc(N[C@@H](CO)C(C)C)nc2c(C(C)C)n[nH]c12 | 0.012 | 8.7 | 10.9
Cc1n[nH]c2c(Nc3cccc(Cl)c3)nc(NCCO)nc12 | 0.9 | 8.9 | 9.8
CC(=O)Oc1cccc(CNc2nc(NCCO)nc3c(C)n[nH]c23)c1 | 3.4 | 15.4 | 16.7
CC[C@H](CO)Nc1nc(NCc2ccc(Cl)c(N)c2)c2[nH]nc(C(C)C)c2n1 | 0.024 | 11.4 | 18.7

SMILES | IC50 (MMK1 protein kinase) [µM] | GI50 [1] [µM] | GI50 (B16) [µM]
CC(=O)Oc1ccccc1CNc1nc(NCCO)nc2c(C)n[nH]c12 | 3.3 | 14.5 | 16.2
CC(=O)c1cccc(CNc2nc(N[C@@H](CO)C(C)C)nc3c(C(C)C)n[nH]c23)c1 | 0.005 | 8.6 | 9.4
CC[C@H](CO)Nc1nc(NCc2cccc(OC)c2O)c2[nH]nc(C(C)C)c2n1 | 0.012 | 3.1 | 6.2
CC(=O)c1cccc(CNc2nc(NCCO)nc3c(C)n[nH]c23)c1 | 0.9 | 13.5 | 14.2
Cc1n[nH]c2c(Nc3ccc(O)c(C(=O)O)c3)nc(NCCO)nc12 | 0.7 | 12.4 | 15.8
CC[C@H](CO)Nc1nc(NCc2ccccc2C(C)=O)c2[nH]nc(C(C)C)c2n1 | 0.015 | 11.9 | 16.3
Cc1n[nH]c2c(NCc3cccc(O)c3)nc(NCCO)nc12 | 0.84 | 9.4 | 10.2
CC(C)c1n[nH]c2c(N(C)Cc3ccc(O)c(O)c3)nc(N[C@@H](CO)C(C)C)nc12 | 0.11 | 3.5 | 4.8
COc1cccc(CNc2nc(NCCO)nc3c(C)n[nH]c23)c1O | 0.45 | 3.5 | 4.2
CC(C)c1n[nH]c2c(NC(CO)c3ccccc3)nc(NC(CO)C(C)C)nc12 (stereo not drawn) | 0.15 | 2.6 | 4.8
CC(C)c1n[nH]c2c(N(C)CCc3ccc(O)c(O)c3)nc(N[C@@H](CO)C(C)C)nc12 | 0.15 | 8.4 | 9.7
Cc1n[nH]c2c(NCc3cccc(Cl)c3O)nc(NCCO)nc12 | 0.38 | 1.5 | 2.1
CC[C@H](CO)Nc1nc(NCc2ccccc2O)c2[nH]nc(C(C)C)c2n1 | 0.012 | 7.8 | 9.3
Cc1n[nH]c2c(Nc3ccc(Cl)cc3)nc(NCCO)nc12 | 0.18 | 7.6 | 8.4
CC(C)c1n[nH]c2c(Nc3cc(N)cc(Cl)c3)nc(N[C@@H](CO)C(C)C)nc12 | 0.015 | 9.5 | 14.5
CC[C@H](CO)Nc1nc(NCc2ccc(O)c(O)c2)c2[nH]nc(C(C)C)c2n1 | 1.1 | 9.2 | 15.7
CC[C@H](CO)Nc1nc(Nc2ccc(O)c(C(=O)O)c2)c2[nH]nc(C(C)C)c2n1 | 0.03 | 18.4 | 25.8
Cc1n[nH]c2c(N(C)Cc3ccc(O)c(O)c3)nc(NCCO)nc12 | 1.95 | 10.3 | 11.5
CC[C@H](CO)Nc1nc(N(C)CCc2ccc(O)c(O)c2)c2[nH]nc(C(C)C)c2n1 | 1.5 | 13.1 | 18.6
Cc1n[nH]c2c(Nc3ccc(C(=O)O)c(Cl)c3)nc(NCCO)nc12 | 0.16 | 8.9 | 9.2
CC[C@H](CO)Nc1nc(NCc2cccc(O)c2)c2[nH]nc(C(C)C)c2n1 | 0.04 | 10.5 | 12.4

SMILES | IC50 (MMK1 protein kinase) [µM] | GI50 [1] [µM] | GI50 (B16) [µM]
Cc1n[nH]c2c(Nc3ccccc3)nc(NCCO)nc12 [2-hydroxyethylamino / anilino / methyl] | 2.5 | 10.2 | 12.4
Cc1cccc(CNc2nc(NCCO)nc3c(C)n[nH]c23)c1O | 0.34 | 2.8 | 3.1
Cc1n[nH]c2c(Nc3ccc(Cl)c(N)c3)nc(NCCO)nc12 | 0.24 | 5.7 | 6.4
CC[C@H](CO)Nc1nc(NCc2ccc(OC)c(O)c2O)c2[nH]nc(C(C)C)c2n1 | 0.005 | 4.7 | 6.2
CC[C@H](CO)Nc1nc(Nc2ccccc2)c2[nH]nc(C(C)C)c2n1 | 0.11 | 13.2 | 18.4
CC(=O)c1ccccc1CNc1nc(NCCO)nc2c(C)n[nH]c12 | 0.4 | 10.8 | 9.3
CC[C@H](CO)Nc1nc(NCc2cccc(OC(C)=O)c2)c2[nH]nc(C(C)C)c2n1 | 0.4 | 18.5 | 23.7
CC[C@H](CO)Nc1nc(Nc2ccc(Cl)c(N)c2)c2[nH]nc(C(C)C)c2n1 | 0.013 | 4.7 | 7.5
COc1cc(O)c(CNc2nc(NCCO)nc3c(C)n[nH]c23)c(O)c1 | 0.09 | 2.8 | 4.7
COc1cc(O)c(CNc2nc(NCCO)nc3c(C)n[nH]c23)cc1O | 0.16 | 4.2 | 3.7
CCC(CO)Nc1nc(NC(CO)c2ccccc2)c2[nH]nc(C(C)C)c2n1 (stereo not drawn) | 0.21 | 7.9 | 13.7
CC[C@H](CO)Nc1nc(NCc2ccccc2OC(C)=O)c2[nH]nc(C(C)C)c2n1 | 0.2 | 13.8 | 19.3
CC(=O)c1ccccc1CNc1nc(N[C@@H](CO)C(C)C)nc2c(C(C)C)n[nH]c12 | 0.05 | 14.5 | 18.2
Cc1n[nH]c2c(NCc3cc(O)c(Cl)cc3O)nc(NCCO)nc12 | 0.38 | 1.5 | 2.8
Cc1n[nH]c2c(NCc3ccc(O)c(O)c3)nc(NCCO)nc12 | 24 | 15.5 | 18.7
Cc1n[nH]c2c(NCc3ccc(Cl)c(N)c3N)nc(NCCO)nc12 | 2.8 | 5.6 | 6.5
COc1cccc(CNc2nc(N[C@@H](CO)C(C)C)nc3c(C(C)C)n[nH]c23)c1O | 0.015 | 9.7 | 9.1
CC[C@H](CO)Nc1nc(N(C)Cc2ccc(O)c(O)c2)c2[nH]nc(C(C)C)c2n1 | 0.51 | 11.6 | 19.4
Cc1n[nH]c2c(NCc3ccccc3O)nc(NCCO)nc12 | 0.41 | 5.6 | 8.2
